Measurements taken from ChEMBL document CHEMBL3885881, “DrugMatrix”.

Species on record: Rattus norvegicus
Assay: DrugMatrix - Regimen: Daily Repeat
Assay type: toxicity, organism-based, Sprague-Dawley
Set-up: regimen Daily Repeat, gender Male, age 6-8 weeks
Conditions: in vivo, po, route oral GAVAGE, vehicle .5 % CMC; for ABSOLUTE BASOPHIL / ABSOLUTE EOSINOPHIL / ABSOLUTE LYMPHOCYTE / ABSOLUTE MONOCYTE / ABSOLUTE SEGMENTED NEUTROPHIL / BASOPHIL / EOSINOPHIL / ERYTHROCYTE COUNT / HEMATOCRIT / HEMOGLOBIN / LEUKOCYTE COUNT / LYMPHOCYTE / MEAN CORPUSCULAR HEMOGLOBIN / MEAN CORPUSCULAR HEMOGLOBIN CONCENTRATION / MEAN CORPUSCULAR VOLUME / MONOCYTE / NEUTROPHIL / NUCLEATED RED BLOOD CELLS / PLATELET COUNT: tissue Blood; for ALANINE AMINOTRANSFERASE / ALBUMIN / ALKALINE PHOSPHATASE / ASPARTATE AMINOTRANSFERASE / BLOOD UREA NITROGEN / CARBON DIOXIDE / CHLORIDE / CHOLESTEROL / CREATINE PHOSPHOKINASE / CREATININE / GLUCOSE / LACTATE DEHYDROGENASE / LIPASE / PHOSPHORUS / POTASSIUM / SODIUM / TOTAL BILIRUBIN / TOTAL PROTEIN / URIC ACID: tissue Plasma
[1] = 0 mg/kg, 72 h, dose level Control, time 3 day
[2] = 0 mg/kg, 120 h, dose level Control, time 5 day
[3] = 3 mg/kg, 72 h, dose level Low, time 3 day

O=c1[nH]cc(F)c(=O)[nH]1 [FLUOROURACIL]
ABSOLUTE BASOPHIL [1]: 0 CELLS/uL | ABSOLUTE EOSINOPHIL [1]: 130.33 CELLS/uL | ABSOLUTE LYMPHOCYTE [1]: 10030.67 CELLS/uL | ABSOLUTE MONOCYTE [1]: 41 CELLS/uL | ABSOLUTE SEGMENTED NEUTROPHIL [1]: 1298 CELLS/uL | BASOPHIL [1]: 0% | EOSINOPHIL [1]: 1% | ERYTHROCYTE COUNT [1]: 5.22 x10E6/uL | HEMATOCRIT [1]: 33.53% | HEMOGLOBIN [1]: 12.73 G/DL | LEUKOCYTE COUNT [1]: 11.5 x10E3/uL | LYMPHOCYTE [1]: 87.67% | MEAN CORPUSCULAR HEMOGLOBIN [1]: 24.45 pg | MEAN CORPUSCULAR HEMOGLOBIN CONCENTRATION [1]: 37.97 G/DL | MEAN CORPUSCULAR VOLUME [1]: 64.33 fL | MONOCYTE [1]: 0.33% | NEUTROPHIL [1]: 11% | NUCLEATED RED BLOOD CELLS [1]: 0 /100WBC | PLATELET COUNT [1]: 1310.5 x10E3/uL | ALANINE AMINOTRANSFERASE [1]: 52 u/L | ALBUMIN [1]: 4.22 G/DL | ALKALINE PHOSPHATASE [1]: 340.17 u/L | ASPARTATE AMINOTRANSFERASE [1]: 87.5 u/L | BLOOD UREA NITROGEN [1]: 15.17 mg/dL | CARBON DIOXIDE [1]: 25.5 mmol/L | CHLORIDE [1]: 101.83 MEQ/L | CHOLESTEROL [1]: 68.17 mg/dL | CREATINE PHOSPHOKINASE [1]: 379.67 u/L | CREATININE [1]: 0.17 mg/dL | GLUCOSE [1]: 181.67 mg/dL | LACTATE DEHYDROGENASE [1]: 256.17 u/L | LIPASE [1]: 8 u/L | PHOSPHORUS [1]: 12.1 mg/dL | POTASSIUM [1]: 5.88 MEQ/L | SODIUM [1]: 143.67 MEQ/L | TOTAL BILIRUBIN [1]: 0.18 mg/dL | TOTAL PROTEIN [1]: 5.92 G/DL | URIC ACID [1]: 1.7 mg/dL | ABSOLUTE BASOPHIL [2]: 0 CELLS/uL | ABSOLUTE EOSINOPHIL [2]: 31 CELLS/uL | ABSOLUTE LYMPHOCYTE [2]: 9599.17 CELLS/uL | ABSOLUTE MONOCYTE [2]: 52.83 CELLS/uL | ABSOLUTE SEGMENTED NEUTROPHIL [2]: 1050.33 CELLS/uL | BASOPHIL [2]: 0% | EOSINOPHIL [2]: 0.33% | ERYTHROCYTE COUNT [2]: 5.53 x10E6/uL | HEMATOCRIT [2]: 35.8% | HEMOGLOBIN [2]: 13.53 G/DL | LEUKOCYTE COUNT [2]: 10.73 x10E3/uL | LYMPHOCYTE [2]: 89% | MEAN CORPUSCULAR HEMOGLOBIN [2]: 24.47 pg | MEAN CORPUSCULAR HEMOGLOBIN CONCENTRATION [2]: 37.82 G/DL | MEAN CORPUSCULAR VOLUME [2]: 64.7 fL | MONOCYTE [2]: 0.5% | NEUTROPHIL [2]: 10.17% | NUCLEATED RED BLOOD CELLS [2]: 0 /100WBC | PLATELET COUNT [2]: 1028.5 x10E3/uL | ALANINE AMINOTRANSFERASE [2]: 45.33 u/L | ALBUMIN [2]: 4.33 G/DL | ALKALINE PHOSPHATASE [2]: 351.83 u/L | ASPARTATE AMINOTRANSFERASE [2]: 73.5 u/L | BLOOD UREA NITROGEN [2]: 17.83 mg/dL | CARBON DIOXIDE [2]: 24.67 mmol/L | CHLORIDE [2]: 100 MEQ/L | CHOLESTEROL [2]: 67 mg/dL | CREATINE PHOSPHOKINASE [2]: 284 u/L | CREATININE [2]: 0.2 mg/dL | GLUCOSE [2]: 152.33 mg/dL | LACTATE DEHYDROGENASE [2]: 108.67 u/L | LIPASE [2]: 8.17 u/L | PHOSPHORUS [2]: 11.17 mg/dL | POTASSIUM [2]: 6.14 MEQ/L | SODIUM [2]: 144.68 MEQ/L | TOTAL BILIRUBIN [2]: 0.22 mg/dL | TOTAL PROTEIN [2]: 6.08 G/DL | URIC ACID [2]: 1.27 mg/dL | ABSOLUTE BASOPHIL [3]: 0 CELLS/uL | ABSOLUTE EOSINOPHIL [3]: 34 CELLS/uL | ABSOLUTE LYMPHOCYTE [3]: 9566.33 CELLS/uL | ABSOLUTE MONOCYTE [3]: 34 CELLS/uL | ABSOLUTE SEGMENTED NEUTROPHIL [3]: 1732.33 CELLS/uL | BASOPHIL [3]: 0% | EOSINOPHIL [3]: 0.33% | ERYTHROCYTE COUNT [3]: 5.74 x10E6/uL | HEMATOCRIT [3]: 36.43% | HEMOGLOBIN [3]: 13.5 G/DL | LEUKOCYTE COUNT [3]: 11.37 x10E3/uL | LYMPHOCYTE [3]: 84% | MEAN CORPUSCULAR HEMOGLOBIN [3]: 23.57 pg | MEAN CORPUSCULAR HEMOGLOBIN CONCENTRATION [3]: 37.07 G/DL | MEAN CORPUSCULAR VOLUME [3]: 63.6 fL | MONOCYTE [3]: 0.33% | NEUTROPHIL [3]: 15.33% | NUCLEATED RED BLOOD CELLS [3]: 0 /100WBC | PLATELET COUNT [3]: 984 x10E3/uL | ALANINE AMINOTRANSFERASE [3]: 53.67 u/L | ALBUMIN [3]: 4.33 G/DL | ALKALINE PHOSPHATASE [3]: 357 u/L | ASPARTATE AMINOTRANSFERASE [3]: 102 u/L | BLOOD UREA NITROGEN [3]: 15 mg/dL | CARBON DIOXIDE [3]: 26 mmol/L | CHLORIDE [3]: 100.67 MEQ/L | CHOLESTEROL [3]: 72.33 mg/dL | CREATINE PHOSPHOKINASE [3]: 938.33 u/L | CREATININE [3]: 0.19 mg/dL | GLUCOSE [3]: 156 mg/dL | LACTATE DEHYDROGENASE [3]: 212 u/L | LIPASE [3]: 8.67 u/L | PHOSPHORUS [3]: 12.53 mg/dL | POTASSIUM [3]: 6.78 MEQ/L | SODIUM [3]: 143.77 MEQ/L | TOTAL BILIRUBIN [3]: 0.23 mg/dL | TOTAL PROTEIN [3]: 6.07 G/DL
